Laboratory results published in US8030446B2, “Mutant proline-and-arginine rich peptides and methods for using the same” (Trustees of Dartmouth College, priority 2006, dated 2011).
Several values for one entry are separate records, joined by “and”; a condition that tells them apart may be missing. Identical values can stand only once. Like-named read-outs stand apart in the source and are kept apart here. Marks after values point to notes of the source that are not given here. Ends that are not written are not given here.

Columns and labels:
[1] = biological target: T1, Mammalian (Human) 20s Proteasome (Homo sapiens, UniProt P25788); test: Chymotrypsin-like (ChT-L) peptidase activity of 20S proteasome, N-succinyl-LLVY-AMC substrate; type: biochemical; conditions: for IC50: 15-minute pre-incubation, 1 hour at 37° C., pH 7.5, 0.03% SDS
T1 construct: purchased Boston Biochem (Cambridge, Mass.)
Procedure: Determination of Enzymatic Activity. Mammalian (Human) 20s Proteasome was purchased from Boston Biochem (Cambridge, Mass.); substrate, N-succinyl-LLVY-AMC was purchased from SIGMA (St. Louis, Mo.); and negative control, Lactacystin, was purchased from SIGMA. […] Activity was determined by measuring the amount of a fluorescence observed upon release of the MCA group after a 1 hour incubation at 37° C. in 50 mM sodium phosphate buffer at pH 7.5 containing 0.03% SDS. Inhibition by PR-peptide was measured after a 15-minute pre-incubation at 37° C. of each peptide with 20S proteasome, followed by the addition of the substrate and the one hour incubation.

[2] = tested on: genes regulating the NF-κB pathway in human umbilical vein endothelial cells (HUVEC); test: NF-κB pathway-specific gene expression microarray in HUVEC treated with PR peptides; type: cell-based; conditions: for overall inhibitory effect on NF-κB pathway-related gene expression (in words): FIG. 1, averaged % inhibition over 13 down-regulated genes, relative to PR11; for AKT1 gene expression / ATF2 gene expression / CREB1 gene expression / ELK3 gene expression / JNK1 gene expression / MEK4 gene expression / MEKK1 gene expression / MEKK2 gene expression / NF-κB1 gene expression / NF-κB2 gene expression / P38 MAPK gene expression / RANK gene expression / RIP gene expression / TAK1 gene expression / TBK1 gene expression / TRAF6 gene expression / number of significantly reduced genes: HUVEC; for AKT1 gene expression / ATF2 gene expression / CREB1 gene expression / ELK3 gene expression / JNK1 gene expression / MEK4 gene expression / MEKK1 gene expression / MEKK2 gene expression / NF-κB1 gene expression / NF-κB2 gene expression / P38 MAPK gene expression / RANK gene expression / RIP gene expression / TAK1 gene expression / TBK1 gene expression / TRAF6 gene expression: PR peptides 1 μM, 8 hours, relative to untreated controls; for number of significantly reduced genes: of the 13 down-regulated genes of Tables 5 and 6
Procedure: Cell Culture. Human umbilical vein endothelial cells (HUVEC, Cambrex Bio Science Walkersville, Inc., East Rutherford, N.J.) were cultured in endothelial cell basal medium-2 supplemented with EGM-2 SINGLEQUOTS (Cambrex Bio Science Walkersville, Inc.) and FBS. Confluent HUVEC, passage 3-5, were starved overnight in medium supplemented with 0.5% FBS, 0.25% BSA and incubated with PR peptides (1 μM) for 8 hours in starvation medium.
Total RNA Extraction and Gene Profiling by Microarray. Total RNA extraction was performed using the RNEASY mini kit protocol (QIAGEN, Valencia, Calif.). The quality and quantity of total RNA was determined using RNA 6000 Nano chips (Agilent Technology, Santa Clara, Calif.).
Gene profiling was performed using pathway-specific gene expression array for NF-κB signaling transduction (HS-016.2, SuperArray Bioscience Corp.). A total of 96 cDNA fragments from genes related to NF-κB mediated signal transduction, including: NF-κB/IκB family, NF-κB responsive genes (adhesion molecules, cytokines), extracellular ligands, transmembrane receptors, adaptor proteins, signal transduction kinases, and transcription factors were printed in tetraspot format on 3.8×4.8 cm nylon array membrane. Total RNA (0.5 μg) was reverse-transcribed into cDNA labeled with biotin-dUTP according to the manufacture's protocol. After overnight hybridization at 60° C., array membranes were treated with alkaline phosphate-conjugated streptavidin followed by chemiluminescent alkaline phosphate substrate CDP-star (Applied Biosystems, Foster City, Calif.) and exposed to X-ray film. The data were extracted from raw images using […] software (SuperArray, Bioscience Corp.). After background subtraction, the level of gene expression was determined as signal intensity units relative to total array intensity signal. Statistical significant altered genes (PR peptides vs. control) at P values <0.05 were analyzed by Student's t-test, 2-tailed distribution. The data were expressed as fold change PR peptides relative to controls (untreated cells kept in similar conditions).

[3] = chymotrypsin-like activity, read-out: I50

Substance | IC50 [1, 3] | overall inhibitory effect on NF-κB pathway-related gene expression (in words) [2] | AKT1 gene expression [2] [fold change] | ATF2 gene expression [2] | CREB1 gene expression [2] | ELK3 gene expression [2] | JNK1 gene expression [2] [fold change] | MEK4 gene expression [2] | MEKK1 gene expression [2] | MEKK2 gene expression [2] | NF-κB1 gene expression [2] [fold change] | NF-κB2 gene expression [2] | P38 MAPK gene expression [2] | RANK gene expression [2] | RIP gene expression [2] | TAK1 gene expression [2] | TBK1 gene expression [2] | TRAF6 gene expression [2] | also measured
AAAPRPPYLPR [AAA, reference compound] | – | – | – | – | – | – | – | – | – | – | – | – | – | – | – | – | – | – | IC50 ([1]; I50, chymotrypsin-like activity): > 100 µM
AARPRPPYLPR [AAR] | 14.5 µM | – | – | – | – | – | – | – | – | – | – | – | – | – | – | – | – | – | –
ARAPRPPYLPR [ARA] | 11.3 µM | – | – | – | – | – | – | – | – | – | – | – | – | – | – | – | – | – | –
ARRPRPPELPR [Peptide A1E8] | 49.4 µM | reduced activity compared with PR11 or Trp12 | 0.8 | −1.5* fold change | −2.2* fold change | ^−1.9^# fold change | −1.5 | −1.2 fold change | −0.8 fold change | −1.2 fold change | −1.6 | −3.5* fold change | −1.6 fold change | 1.3 fold change | −10.4^# fold change | −1.8 fold change | −2.0^# fold change | −1.6 fold change | –
ARRPRPPYLPR [Peptide A1] | 2.81 µM | dramatically reduced PR11 activity | 1.3 | −1.4* fold change | −1.4 fold change | 0.9 fold change | −1.1 | −0.9 fold change | −1.0 fold change | −1.2 fold change | −1.1 | −1.1 fold change | −1.1 fold change | 1.2 fold change | −0.9 fold change | −1.4* fold change | −1.4* fold change | −1.1 fold change | –
H-RRRPRPPYLPRPRPPPFFPPRLPPRIPPGFPPRFPPRFP-OH [PR39, reference compound] | 0.004 µM | – | – | – | – | – | – | – | – | – | – | – | – | – | – | – | – | – | –
KKKPRPPYLPR [KKK] | 2.71 µM | lowest inhibitory effect in this series | 1.7 | −1.3 fold change | −1.3 fold change | 1.4^# fold change | −2.5 | −2.8* fold change | −2.0 fold change | −1.5 fold change | −2.4 | −1.4 fold change | −1.3 fold change | 1.2 fold change | −2.6 fold change | −2.9* fold change | −1.8^# fold change | −1.3 fold change | number of significantly reduced genes [2]: 3 genes
KRRPRPPELPR [Peptide K1E8] | 6.34 µM | higher than that of Glu8 or Ala1Glu8 | 0.6 | −2.6^# fold change | −5.0^# fold change | ^−1.9^# fold change | −2.2 | −1.9* fold change | −1.4 fold change | −3.0^# fold change | −1.9 | −2.3* fold change | −2.6^# fold change | 0.7 fold change | −3.3* fold change | −2.4^# fold change | −3.6^# fold change | −5.5* fold change | –
RAAPRPPYLPR [RAA] | 20.1 µM | – | – | – | – | – | – | – | – | – | – | – | – | – | – | – | – | – | –
RARPRPPYLPR [Peptide A2] | 2.77 µM | dramatically reduced PR11 activity | 1.4 | −1.2 fold change | −1.4 fold change | 1.0 fold change | −1.5 | −1.9 fold change | −1.8 fold change | −0.9 fold change | −1.2 | −0.8 fold change | −0.9 fold change | 1.4 fold change | −1.1 fold change | −0.8 fold change | −1.3 fold change | −1.1 fold change | –
RKRPRPPYLPR [Peptide K2] | 0.543 µM | not significantly different than PR11 | 1.6 | −2.0^# fold change | −2.6 fold change | 1.5* fold change | −3.1 | −9.3^# fold change | −5.3* fold change | −1.7 fold change | −2.1 | −1.5 fold change | −1.4 fold change | 1.1 fold change | −2.8* fold change | −2.1* fold change | −4.6^# fold change | −2.5 fold change | number of significantly reduced genes [2]: 6 genes
RRAPRPPYLPR [Peptide A3] | 3.15 µM | more active than A1-PR11 and A2-PR11 | 1.7 | −1.3 fold change | −1.3 fold change | 1.3* fold change | −2.6 | −2.7* fold change | −1.9 fold change | −2.1* fold change | −2.0 | −1.4 fold change | −1.9* fold change | 1.7* fold change | −3.0* fold change | −3.3* fold change | −2.1* fold change | −1.4 fold change | number of significantly reduced genes [2]: 5 genes
RRRARPPYLPR [Peptide A4] | 5 µM and 4.99 µM | – | – | – | – | – | – | – | – | – | – | – | – | – | – | – | – | – | –
RRRPAPPYLPR [Peptide A5] | 2.65 µM | – | – | – | – | – | – | – | – | – | – | – | – | – | – | – | – | – | –
RRRPRAPYLPR [Peptide A6] | 1.22 µM | – | – | – | – | – | – | – | – | – | – | – | – | – | – | – | – | – | –
RRRPRPAYLPR [Peptide A7] | 0.851 µM | – | – | – | – | – | – | – | – | – | – | – | – | – | – | – | – | – | –
RRRPRPPYGPR [Peptide G9] | 0.137 µM | – | – | – | – | – | – | – | – | – | – | – | – | – | – | – | – | – | 20S proteasome inhibiting activity (in words) ([1]; chymotrypsin-like activity): fully active
RRRPRPPYLAR [Peptide A10] | 0.782 µM | – | – | – | – | – | – | – | – | – | – | – | – | – | – | – | – | – | –
RRRPRPPYLPA [Peptide A11] | 0.685 µM | – | – | – | – | – | – | – | – | – | – | – | – | – | – | – | – | – | –
